Where two headings read alike, the source gives them in different places.
Key:
[1] = test system: M21 (αvβ3+), HN (αvβ6+), RKO (α5β1+) cells; test: Time-dependent cellular uptake of Cy5.5-labeled ligands in cells overexpressing the targeted integrin; format: cell-based; settings: state within 30 min, Cy5.5-conjugated ligands, target integrin-expressing cells
From the text: For intracellular drug delivery, integrin ligands designed as drug-conjugated vehicles have to be easily and selectively internalized by tumor cells (over)expressing the respective targeted integrin subtype. […] It should be noted here that HN, OV-MZ-6, and RKO cells also express low αvβ3 expression levels.
Figure 7 Cellular uptake of Cy5.5-labeled integrin ligands. […] Nuclei were costained with Hoechst 33342 (blue signal) and cell membranes with CellMask Green (green signal). Merge of stains (yellow signal) indicated colocalization of ligands at the cell membrane. Scale bar: 50 μm.
Microchamber cell culture slides were coated with fibronectin (2 μg/mL), followed by cell seeding at a density of 50,000 cells/well. After 24 h of cultivation, cells were treated with integrin ligands L1-Cy5.5 to L5-Cy5.5 (1 μM in 0.01% (w/v) CaCl2 and 0.1% (w/v) BSA in PBS; 250 μL/well) for 3, 30, 60, or 300 min at 37 °C. The cells were washed in PBS/0.01% (w/v) CaCl2 (6 × 800 μL) and the fluorescence signal intensity recorded using the LSM 700 microscope (Zeiss, Jena, Germany). CellMask Green Plasma Membrane Stain was used to stain the cell membrane; nuclei were stained with Hoechst 33342.

human αvβ6-integrin [2] = biological target: T1, human αvβ6-integrin (Homo sapiens, UniProt P06756+P18564); settings: previously published values; cited from earlier work
T1 construct: purchased R&D 3817-AV-050

OV-MZ-6 cells = test: Cell adhesion in the presence of ligand, OV-MZ-6 cells; format: cell-based; settings: 1 μM, 48 h
Procedure: Figure 10 (A) Effect of integrin ligands on cancer cell migration. […] Microscopical measurements of wound gaps were taken directly after setting the wound scratch and then after 9, 24, 48, and 72 h, respectively. Wound scratch assays were repeated at least three times. The extent of wound gap closure [%]/cell coverage was calculated by a python script utilizing Canny’s Edge Detection algorithm as described under Materials and summarized in the corresponding histograms (see also Scheme S5 in the Supporting Information). (B) Adhesion of M21, OV-MZ-6, and HN cells in the presence of the respective integrin targeting ligand at low (1 nM) and high (1 μM) concentrations. […] Depicted are typical microscopical images of the respective cell monolayers.

human αvβ6-integrin [3] = biological target: T1, human αvβ6-integrin; test: ELISA-type solid-phase binding assay: soluble αvβ6 competing for immobilized LAP (TGF-β); settings: competitive ELISA-type assay, referenced to internal standard RTDLDSLRT
[4] = test system: FAK, p-FAK, p44/42erk-1/2, p-p44/42erk-1/2 in αvβ3+ M21 cells; test: Western blot of FAK and p44/42erk-1/2 expression and activation, M21 cells; format: cell-based
Procedure: Since agonistic ligand performance requires integrin activation and signaling, by Western blot analysis, we studied whether the different ligands alter the expression levels and activation states of FAK and p44/42^(erk-1/2). For this, the respective target integrin-expressing tumor cell types were incubated with the corresponding subtype-selective ligand at a concentration of 1 μM for 24 h (Figure 8). […] Signal intensities of FAK and p44/42^(erk-1/2) expression and activation (p-FAK and p-p44/42^(erk-1/2)) on Western blots were evaluated by densitometry. Data are depicted as GAPDH-normalized fluorescence signal intensities as n-fold, by setting values obtained for the respective untreated cells to “1”. […] MAPK p44/42^(erk-1/2) expression was approximately 2.2-fold augmented, p44/42^(erk-1/2) by approximately 2.5-fold. It also raised activation of p-FAK and p-p44/42^(erk-1/2) by approximately 2.2-fold and 3.1-fold, respectively, in α5β1+ OV-MZ-6 cells. […] Additionally, it raised FAK (approximately 1.7-fold) and p-p44/42^(erk-1/2) (approximately 2.4-fold) in α5β1+ OV-MZ-6 cells.
Figure 8 Effects of ligands on cellular expression and activation of integrin-related signaling molecules FAK and p44/42^(erk-1/2). […] Signal intensities for FAK and p-FAK, respectively, were evaluated by use of the Bio-Rad Imager Gel Doc XR+ and a ChemiDoc XRS+ Systems and the software Image Lab. Shown are typical representative Western blot images and the corresponding histograms depicting GAPDH-normalized signal intensities as n-fold by setting the values obtained for untreated cells to “1” (drawn as black line). For each cell line, cutouts of identical gels are depicted.
In order to capture early and transient changes in signaling activation following ligand treatment, we next reduced the observation periods to 5, 30, or 60 min and assessed FAK expression and activation. […] Depicted are typical Western blot images and the corresponding densitometrical evaluations of GAPDH-normalized signal intensities as n-fold, by setting that of the respective untreated cell type to “1” (Figure 9). […]
The kinases (p-)p44/42^(erk-1/2) and (p-)FAK were detected as previously published.[15],[8] Briefly, cells were grown for 18 h on six-well plates in DMEM (0.45 Mio cells/well). After medium exchange, fresh medium with L1–L5 (concentration: 1.0 μM, 2 mL/well) was added, and cells were incubated for another 24 h at 37 °C. In a second series, cells were incubated with L1–L5 (1 μM or 1 nM) for 5, 30, or 60 min. Thereafter, the cellular proteins were extracted and processed by Western blotting. Proteins were visualized using the Pierce ECL chemiluminescent substrate (Thermo Fisher Scientific). Band signal intensities for (p-)p44/42^(erk-1/2) and (p-)FAK were evaluated using the Bio-Rad Imager Gel Doc XR + and ChemiDoc XRS + Systems and the software Image Lab. Differences in protein loading and blotting efficiency were normalized by reprobing the membranes with a monoclonal antibody directed to GAPDH. Signal intensities for protein bands of interest were normalized to those recorded for GAPDH. Typical Western blot images are depicted together with histograms summarizing the mean values of normalized fluorescence signal intensities as n-fold, by setting those obtained for untreated cells to “1”.

human αvβ3-integrin = biological target: T2, human αvβ3-integrin (Homo sapiens, UniProt P05106+P06756); test: ELISA-type solid-phase binding assay: soluble αvβ3 competing for immobilized vitronectin; settings: competitive ELISA-type assay, referenced to internal standard cilengitide (L2)
T2 construct: purchased R&D 3050-AV-050

c(FRGDLAFp(NMe)K) [L3]
Endocytosis of Cy5.5-conjugated ligand [1]: already completed | IC50 (human αvβ6-integrin [2]): 0.28 ± 0.019 nM

C#CCCC(=O)NCCCOc1cc(C)c(C(=O)N[C@@H](CNC(=O)CNC(=O)c2cccc(NC(=N)N)c2)C(=O)O)c(C)c1 [L5, (S)-2-(2,6-Dimethyl-4-(3-(pent-4-ynamido)propoxy)benzamido)-3-(2-(3-guanidinobenzamido)acetamido)propanoic Acid]
Effect on cell adhesion / attachment (OV-MZ-6 cells): performed as inhibitors of cell attachment | IC50 (human αvβ6-integrin [3]): > 1000 nM | (p-)p-44/42erk-1/2 ([4]; 1 μM, 24 h): unexpectedly increased | p-FAK levels versus untreated cells ([4]; both concentrations (1 nM, 1 μM), up to 60 min): equal or slightly higher than those in untreated cells | IC50 (human αvβ3-integrin): > 1000 nM

C#CCCC(=O)NCCCOc1ccc(C(=O)N[C@H](CC(=O)O)Cc2ccc(OCCCNc3cc(OC)ccn3)cc2)cc1 [L1, (S)-4-(4-(3-((4-Methoxypyridin-2-yl)amino)propoxy)phenyl)-3-(4-(3-(pent-4-ynamido)propoxy)benzamido)butanoic Acid]
IC50 (human αvβ6-integrin [3]): 152 ± 60.8 nM | Endocytosis of Cy5.5-conjugated ligand [1]: started within 30 min | FAK expression versus untreated cells ([4]; 1 nM, 5, 30 or 60 min): transient and slight increase | p-FAK expression ([4]; 1 nM, 5, 30 or 60 min): always prominently higher than that at 1 μM | FAK expression versus untreated cells ([4]; 1 μM, 5, 30 or 60 min): remained below that in untreated cells | FAK expression, n-fold of untreated cells ([4]; 1 μM, 24 h, GAPDH-normalized): doubled | p-FAK expression, n-fold of untreated cells ([4]; 1 μM, 24 h, GAPDH-normalized): slightly reduced | IC50 (human αvβ3-integrin): 1.1 ± 0.27 nM

Source: PMC11874007, “Switching Roles—Exploring Concentration-Dependent Agonistic versus Antagonistic Behavior of Integrin Ligands” (Journal of Medicinal Chemistry, 2025)
